From patent US20240034731A1, “AZA-QUINAZOLINE COMPOUNDS AND METHODS OF USE” (Iambic Therapeutics, Inc., priority 2022, published 2024)

Key:
CDK6/Cyclin D3 = CDK6/Cyclin D3 (Homo sapiens (Human), UniProt Q00534); assay: CDK6/Cyclin D3 ADP-Glo Kinase Assay; type: biochemical; details: 100 uM ATP, read-out: CDK6/ CyclinD3 IC50
Experimental: CDK6/Cyclin D3 ADP-Glo Kinase Assay
The purpose of the CDK6/Cyclin D3 assay is to evaluate the inhibition (% inhibition and IC50 values) in the presence of small molecule inhibitors by using a Luminescent based ADP-Glo assay. CDK6/Cyclin D3 catalyzes the production of ADP from ATP. ADP-Glo assay monitors ADP producing biochemical reactions. ADP-Glo is performed in 2 steps upon completion of kinase reaction: a combined termination of kinase reaction and depletion of remaining ATP in the first step, and conversion of generated ADP to […] and the newly produced ATP to light output using luciferase/luciferin reaction in the second step. The luminescent signal generated is proportional to the ADP concentration produced and is correlated with the kinase activity CDK6/Cyclin D3 was purchased from Carna. […] The assay was initiated with the addition of ATP-containing substrate solution, following a 30-minute pre-incubation of enzyme and inhibitor at room temperature in the reaction mixture. The reaction was stopped after 90 minutes at room temperature by the addition of 10 uL of ADP-GLO Reagent. After a 90-minute incubation, 20 uL of Kinase Detection Reagent was added. Samples were incubated for 40 minutes, after which plate well luminescence was measured on a Envision microplate reader. The IC50 determinations were made from a plot of the fractional velocity as a function of inhibitor concentration fit to the 4 parameters IC50 equation.

MCF-7 cells = assay: Cell Growth Inhibition, MCF-7 (CellTiterGlo, 6 days); type: cell-based; details: Homo sapiens, MCF7, 144 h, MCF-7, 6-day treatment
Description: (§1) MCF-7 and OVCAR-3 cells were used to evaluate the anti-proliferation activity of the CDK inhibitors. MCF-7 (ATCC, HTB-22) cells are epithelial cells from a patient with ER+ metastatic adenocarcinoma. OVCAR-3 (ATCC, HTB-161) cells were derived from malignant ascites of a patient with ovarian cancer and are known to have CCNE1 amplification. Both cell lines were maintained in RPMI media supplemented with 10% fetal bovine serum. For cell growth inhibition assay, CDK inhibitors in DMSO solution were dispensed with either Echo 655 (Beckman Coulter) or Tecan D300e (HP) into 384-well plates (Corning #3765) and the 384-well plates were UV-sterilized prior to the assay. The inhibitors were typically tested in the 10-10,000 nM concentration range with half-log serial dilutions. MCF-7 or OVCAR-3 (500 cells/30 μL/well) were added to each well using Multidrop Combi (ThermoFisher) using standard cassettes. The assay plates with cells were cultured at 37° C., 5% CO2 for 6 days. At the end of the 6-day treatment, 30 μL of CellTiterGlo 2.0 (Promega) was added to each well and the luminescent signal was read using CLARIOstar plus (BMG). The percentage of cell growth inhibition (% CGI) was calculated using the following formula 00 CGI=100-100×luminescencesampie/luminescencecontroi. The half maximal inhibitory concentration (IC50) was determined by nonlinear curve fitting (four parameters, variable slope).

CDK4/Cyclin D1 = CDK4/Cyclin D1 (Homo sapiens (Human), UniProt P11802); assay: CDK4/Cyclin D1 CHEF Assay (AQT0258 peptide); type: biochemical; details: 200 uM ATP, read-out: CDK4/ CyclinD1 AQT IC50
Description: CDK4/Cyclin D1 CHEF Assay
The purpose of CDK4/Cyclin D1 assay is to evaluate the inhibition (% inhibition and IC50 values) of small molecule inhibitors by using a Chelation-Enhance Fluorescence (CHEF) assay. In a CHEF assay, phosphorylation of a peptide substrate results in proportional increase in fluorescence. CHEF kinase assay use peptide substrates containing a synthetic alpha-amino acid with a side chain bearing an 8-hydroxyquinoline derivative (sulfonamido-oxide, Sox). Upon phosphorylation of a nearby serine, threonine or tyrosine and in the presence of Mg(II), the spectral properties of the Sox residue are altered, emitting 485 nm wavelength light when excited with a 360 nm wavelength light source. CDK4/Cyclin D1 catalyzes the phosphoryl transfer to the SOX-labeled substrate peptide AQT0258 from Assayquant Technologies. […] The reaction was initiated with the addition of substrate solution, following a 30-minute pre-incubation of enzyme and inhibitor at 22° C. in the reaction mix. Reactions were allowed to proceed for 3 hrs at 22° C., followed by fluorescence read of the reaction. The IC50 determinations were made from a plot of the fractional velocity as a function of inhibitor concentration fit to the 4 parameters IC50 equation.

CDK2/Cyclin E1 = CDK2/Cyclin E1 (Homo sapiens (Human), UniProt P24941); assay: CDK2/Cyclin E1 Full length ADP-Glo Kinase Assay; type: biochemical; details: 20 uM ATP, read-out: CDK2/ CyclinE1 IC50
Experimental: CDK2/Cyclin E1 Full length ADP-Glo Kinase Assay
(§2) The purpose of CDK2/Cyclin E1 assay is to evaluate the inhibition (% inhibition and IC50 values) of small molecule inhibitors by using a Luminescent based ADP-Glo assay. CDK2/Cyclin E1 full length catalyzes the production of ADP from ATP. ADP-Glo assay monitors ADP producing biochemical reactions. ADP-Glo is performed in 2 steps upon completion of kinase reaction: a combined termination of kinase reaction and depletion of remaining ATP in the first step, and conversion of generated ADP to ATP and the newly produced ATP to light output using luciferase/luciferin reaction in the second step. The luminescent signal generated is proportional to the ADP concentration produced and is correlated with the kinase activity. CDK2/Cyclin E1 was purchased from Eurofins (Cat 14-475M). […] The assay was initiated with the addition of ATP-containing substrate solution, following a 30-minute pre-incubation of enzyme and inhibitor at room temperature in the reaction mixture. The reaction was stopped after 90 minutes at room temperature by the addition of 10 uL of ADP-GLO Reagent. After a 90 minute incubation, 20 uL of Kinase Detection Reagent was added. Samples were incubated for 40 minutes, after which plate well luminescence was measured on a Envision microplate reader. The IC50 determinations were made from a plot of the fractional velocity as a function of inhibitor concentration fit to the 4 parameters IC50 equation.

CDK1/Cyclin B1 = CDK1/Cyclin B1 (Homo sapiens (Human), UniProt P06493); assay: CDK1/Cyclin B1 ADP-Glo Kinase Assay; type: biochemical; details: ADP-Glo, 80 uM ATP; read-out: CDK1 Cyclin B1 IC50
Experimental: CDK1/Cyclin B1 ADP-Glo Kinase Assay
as §2, with “CDK1/Cyclin B1” for “CDK2/Cyclin E1”, “CDK1/Cyclin B1” for “CDK2/Cyclin E1 full length”, “Carna” for “Eurofins”, “04-102).” for “14-475M).”

OVCAR-3 cells = assay: Cell Growth Inhibition, OVCAR-3 (CellTiterGlo, 6 days); type: cell-based; details: Homo sapiens, 144 h, OVCAR-3, 6-day treatment
Description: as §1

CDK1/Cyclin B1, sequence (P06493 whole entry): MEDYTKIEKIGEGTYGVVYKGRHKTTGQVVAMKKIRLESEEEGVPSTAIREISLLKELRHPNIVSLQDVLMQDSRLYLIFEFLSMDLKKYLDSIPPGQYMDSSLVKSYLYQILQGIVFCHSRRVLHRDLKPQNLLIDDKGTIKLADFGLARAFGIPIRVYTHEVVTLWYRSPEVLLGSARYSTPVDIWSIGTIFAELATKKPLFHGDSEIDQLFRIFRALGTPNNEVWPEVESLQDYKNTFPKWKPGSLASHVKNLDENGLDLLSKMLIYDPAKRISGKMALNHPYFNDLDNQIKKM
CDK1/Cyclin B1, sequence (P14635 whole entry partner): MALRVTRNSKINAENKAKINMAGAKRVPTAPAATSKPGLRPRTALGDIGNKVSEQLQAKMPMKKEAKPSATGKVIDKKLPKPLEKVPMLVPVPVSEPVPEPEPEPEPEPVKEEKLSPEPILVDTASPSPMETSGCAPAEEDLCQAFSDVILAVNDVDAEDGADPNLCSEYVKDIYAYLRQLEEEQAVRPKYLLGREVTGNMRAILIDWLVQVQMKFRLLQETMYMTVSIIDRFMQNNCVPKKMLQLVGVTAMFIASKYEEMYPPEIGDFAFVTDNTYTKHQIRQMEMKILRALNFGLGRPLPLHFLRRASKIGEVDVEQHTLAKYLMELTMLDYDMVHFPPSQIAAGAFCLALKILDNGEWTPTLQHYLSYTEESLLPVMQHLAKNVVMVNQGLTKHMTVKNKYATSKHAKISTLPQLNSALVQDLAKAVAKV
CDK4/Cyclin D1, sequence (P11802 whole entry): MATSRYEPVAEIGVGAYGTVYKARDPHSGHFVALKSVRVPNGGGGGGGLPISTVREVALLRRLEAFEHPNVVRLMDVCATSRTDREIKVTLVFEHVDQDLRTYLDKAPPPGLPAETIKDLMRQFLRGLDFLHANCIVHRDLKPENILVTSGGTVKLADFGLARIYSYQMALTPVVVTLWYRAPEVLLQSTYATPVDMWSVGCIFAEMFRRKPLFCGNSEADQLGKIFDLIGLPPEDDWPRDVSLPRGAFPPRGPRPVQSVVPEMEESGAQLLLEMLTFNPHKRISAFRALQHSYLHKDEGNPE
CDK4/Cyclin D1, sequence (P24385 whole entry partner): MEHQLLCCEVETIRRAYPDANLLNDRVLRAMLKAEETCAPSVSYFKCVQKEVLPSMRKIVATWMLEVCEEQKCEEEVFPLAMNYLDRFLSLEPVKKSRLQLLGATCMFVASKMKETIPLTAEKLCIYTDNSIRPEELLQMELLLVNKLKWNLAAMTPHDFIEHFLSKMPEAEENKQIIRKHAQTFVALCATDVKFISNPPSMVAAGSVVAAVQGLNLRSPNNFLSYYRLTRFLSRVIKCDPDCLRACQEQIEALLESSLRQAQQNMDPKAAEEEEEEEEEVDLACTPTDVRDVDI
CDK6/Cyclin D3, sequence (Q00534 whole entry): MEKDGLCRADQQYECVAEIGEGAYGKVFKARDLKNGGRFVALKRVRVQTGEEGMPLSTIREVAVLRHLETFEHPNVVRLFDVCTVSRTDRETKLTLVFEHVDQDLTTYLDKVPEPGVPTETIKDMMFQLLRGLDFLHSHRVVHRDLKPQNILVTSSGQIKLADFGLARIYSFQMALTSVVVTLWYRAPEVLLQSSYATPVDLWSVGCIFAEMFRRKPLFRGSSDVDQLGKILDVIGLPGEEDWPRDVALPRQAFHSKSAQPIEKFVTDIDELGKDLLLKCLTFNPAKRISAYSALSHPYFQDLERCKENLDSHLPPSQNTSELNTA
CDK6/Cyclin D3, sequence (P30281 whole entry partner): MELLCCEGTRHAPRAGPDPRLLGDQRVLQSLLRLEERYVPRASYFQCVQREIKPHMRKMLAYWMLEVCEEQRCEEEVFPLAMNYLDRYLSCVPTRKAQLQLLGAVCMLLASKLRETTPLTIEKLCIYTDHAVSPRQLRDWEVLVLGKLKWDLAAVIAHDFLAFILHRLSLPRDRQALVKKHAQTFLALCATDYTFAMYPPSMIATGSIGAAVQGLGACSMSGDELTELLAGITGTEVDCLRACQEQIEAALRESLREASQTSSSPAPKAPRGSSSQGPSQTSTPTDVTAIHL

| IC50 (CDK6/Cyclin D3) [nM] | IC50 (MCF-7 cells) [nM] | IC50 (CDK4/Cyclin D1) [nM] | IC50 (CDK2/Cyclin E1) [nM] | IC50 (CDK1/Cyclin B1) [nM] | IC50 (OVCAR-3 cells) [nM] | SMILES |
| --- | --- | --- | --- | --- | --- | --- |
| < 200 | 500 to 2000 | < 200 | < 200 | 500 to 2000 | 500 to 2000 | Cc1cc2cnc(Nc3ccc(N4CC5(CN(C)C5)C4)cc3)nc2c(N2CCC(C#N)(C3CC3)C2)n1 (stereo not drawn) [Compound 28, 3-cyclopropyl-1-(6-methyl-2-((4-(6-methyl-2,6-diazaspiro[3.3]heptan-2-yl)phenyl)amino)pyrido[3,4-d]pyrimidin-8-yl)pyrrolidine-3-carbonitrile] |
| 500 to 2000 | > 2000 | < 200 | 200 to 500 | > 2000 | > 2000 | Cc1cc2cnc(Nc3ccc4c(c3)CN(C3CN(S(C)(=O)=O)C3)C4)nc2c(N2CC3(CN(C)C3)C2)n1 [Compound 29, 6-methyl-8-(6-methyl-2,6-diazaspiro[3.3]heptan-2-yl)-N-(2-(1-(methylsulfonyl)azetidin-3-yl)isoindolin-5-yl)pyrido[3,4-d]pyrimidin-2-amine] |
| 200 to 500 | > 2000 | 200 to 500 | 200 to 500 | > 2000 | > 2000 | Cc1cc2cnc(Nc3ccc(N4CC5(CN(C)C5)C4)cc3)nc2c(N2CC3(C2)CS(=O)(=O)C3)n1 [Compound 30, 6-(6-methyl-2-((4-(6-methyl-2,6-diazaspiro[3.3]heptan-2-yl)phenyl)amino)pyrido[3,4-d]pyrimidin-8-yl)-2-thia-6-azaspiro[3.3]heptane 2,2-dioxide] |
| > 2000 | > 2000 | > 2000 | < 200 | > 2000 | > 2000 | Cc1cc2cnc(Nc3cnn(C4CN(CC#N)C4)c3)nc2c(N2CC3(CN(C)C3)C2)n1 [Compound 31, 2-(3-(4-((6-methyl-8-(6-methyl-2,6-diazaspiro[3.3]heptan-2-yl)pyrido[3,4-d]pyrimidin-2-yl)amino)-1H-pyrazol-1-yl)azetidin-1-yl)acetonitrile] |
| < 200 | 500 to 2000 | < 200 | < 200 | 500 to 2000 | 500 to 2000 | Cc1cc2cnc(NC3CCN(S(=O)(=O)C4CC4)CC3)nc2c(N2CC3(CNC3)C2)n1 [Compound 32, N-(1-(cyclopropylsulfonyl)piperidin-4-yl)-6-methyl-8-(2,6-diazaspiro[3.3]heptan-2-yl)pyrido[3,4-d]pyrimidin-2-amine] |
| < 200 | 500 to 2000 | < 200 | 200 to 500 | 500 to 2000 | 500 to 2000 | Cc1cc2cnc(Nc3cnn(C4CC5(C4)CN(C)C5)c3)nc2c(N2CCC3(C2)CC3(F)F)n1 (stereo not drawn) [Compound 33, 8-(1,1-difluoro-5-azaspiro[2.4]heptan-5-yl)-6-methyl-N-(1-(2-methyl-2-azaspiro[3.3]heptan-6-yl)-1H-pyrazol-4-yl)pyrido[3,4-d]pyrimidin-2-amine] |
| < 200 | 500 to 2000 | < 200 | < 200 | 500 to 2000 | 500 to 2000 | Cc1cc2cnc(Nc3ccc(N4CC5(CN(C)C5)C4)cc3)nc2c(N2CCC3(C2)CC3(F)F)n1 (stereo not drawn) [Compound 34, 8-(1,1-difluoro-5-azaspiro[2.4]heptan-5-yl)-6-methyl-N-(4-(6-methyl-2,6-diazaspiro[3.3]heptan-2-yl)phenyl)pyrido[3,4-d]pyrimidin-2-amine] |
| < 200 | 500 to 2000 | < 200 | 200 to 500 | > 2000 | 500 to 2000 | Cc1cc2cnc(Nc3ccc(N4CC5(CN(C)C5)C4)cc3)nc2c(N2CCC3(CCOCC3)C2)n1 [Compound 35, 6-methyl-N-(4-(6-methyl-2,6-diazaspiro[3.3]heptan-2-yl)phenyl)-8-(8-oxa-2-azaspiro[4.5]decan-2-yl)pyrido[3,4-d]pyrimidin-2-amine] |
| 500 to 2000 | > 2000 | 200 to 500 | 200 to 500 | > 2000 | > 2000 | Cc1cc2cnc(Nc3cnn(CC4(N(C)C)CC4)c3)nc2c(N2CCC3(C2)CC3(F)F)n1 (stereo not drawn) [Compound 36, 8-(1,1-difluoro-5-azaspiro[2.4]heptan-5-yl)-N-(1-((1-(dimethylamino)cyclopropyl)methyl)-1H-pyrazol-4-yl)-6-methylpyrido[3,4-d]pyrimidin-2-amine] |
| > 2000 | > 2000 | > 2000 | 200 to 500 | > 2000 | > 2000 | Cc1cc2cnc(Nc3cc4c(cc3F)CN(S(C)(=O)=O)C4)nc2c(N2CC3(CNC3)C2)n1 [Compound 37, N-(6-fluoro-2-(methylsulfonyl)isoindolin-5-yl)-6-methyl-8-(2,6-diazaspiro[3.3]heptan-2-yl)pyrido[3,4-d]pyrimidin-2-amine] |
